Assay results reported in publication PMC5736782, “The Differential Absorption of a Series of P-Glycoprotein Substrates in Isolated Perfused Lungs from Mdr1a/1b Genetic Knockout Mice can be Attributed to Distinct Physico-Chemical Properties: an Insight into Predicting Transporter-Mediated, Pulmonary Specific Disposition” (Pharmaceutical Research, 2017).

Assays:
[1] = system: P-glycoprotein (Mdr1a/Mdr1b) in isolated perfused mouse lung; assay: Isolated perfused mouse lung (IPML) airway-to-perfusate absorption, Mdr1a/1b (+/+) vs (−/−); settings: for Mdr1a/1b (+/+) ‘F’ estimate by model fit [95% CI) / Mdr1a/1b (-/-) ‘F’ estimate by model fit [95% CI) / Ratio AUCs (-/-) : (+/+) / Mdr1a/1b (+/+) % Deposited Dose absorbed / Mdr1a/1b (-/-) % Deposited Dose absorbed: male, mouse, 50 μM; for Mdr1a/1b (+/+) % Deposited Dose absorbed / Mdr1a/1b (-/-) % Deposited Dose absorbed: 30 min
Method: The atria and the lower half of the heart were cut to allow the free flow of perfusate. The lungs were removed and suspended vertically in a custom water-jacketed glass thorax (Radleys, Essex, UK) maintained at 37°C.
Following dosing of compound into the IPML airways serial samples (250 μL) were collected for bioanalysis from the 10 mL recirculating perfusate reservoir. Each sample collected from the reservoir was replaced with an equal volume of fresh warmed, oxygenated perfusate. Upon termination of the experiment the dose solutions, apparatus washings and perfusate samples were collected for mass balance calculations enabling determination of the actual total dose delivered to the lungs.
Radioactive compounds were directly analysed by liquid scintillation counting. Volumes of 50 μL perfusate samples were mixed with 3 mL of Scintisafe 3 Liquid Scintillation Fluid (Fisher, UK) and transferred to vials for scintillation counting using a TriCarb 2900TR (Packard Bioscience, USA).
After accounting for the mass of compound removed at each sample point, plots of the cumulative ‘%deposited dose absorbed’ versus ‘time’ were generated and subject to nonlinear regression analysis according to a first-order absorption one-compartment accumulating model (Eq. 1) to generate estimates for the extent (F) and rate (Ka) of absorption from the IPML airways to the recirculating perfusate.
The data was also subject to standard non-compartmental analysis, specifically Area Under Curve (AUC0–30 min) of ‘%deposited dose absorbed’ versus ‘time’ (units: %Dose.min) and reflecting for the exclusively accumulating perfusate ‘compartment’ the exposure arising from the IPML absorption process alone.

mouse Bcrp = target: T1, mouse Bcrp (Mus musculus, UniProt Q7TMS5); assay: Gentest ABC transporter membrane ATPase assay; format: biochemical; settings: for Vmax: ATPase, 0 indicates no enzyme turnover
T1 construct: purchased Corning (Gentest), Germany
T1 sequence (Q7TMS5 1-657): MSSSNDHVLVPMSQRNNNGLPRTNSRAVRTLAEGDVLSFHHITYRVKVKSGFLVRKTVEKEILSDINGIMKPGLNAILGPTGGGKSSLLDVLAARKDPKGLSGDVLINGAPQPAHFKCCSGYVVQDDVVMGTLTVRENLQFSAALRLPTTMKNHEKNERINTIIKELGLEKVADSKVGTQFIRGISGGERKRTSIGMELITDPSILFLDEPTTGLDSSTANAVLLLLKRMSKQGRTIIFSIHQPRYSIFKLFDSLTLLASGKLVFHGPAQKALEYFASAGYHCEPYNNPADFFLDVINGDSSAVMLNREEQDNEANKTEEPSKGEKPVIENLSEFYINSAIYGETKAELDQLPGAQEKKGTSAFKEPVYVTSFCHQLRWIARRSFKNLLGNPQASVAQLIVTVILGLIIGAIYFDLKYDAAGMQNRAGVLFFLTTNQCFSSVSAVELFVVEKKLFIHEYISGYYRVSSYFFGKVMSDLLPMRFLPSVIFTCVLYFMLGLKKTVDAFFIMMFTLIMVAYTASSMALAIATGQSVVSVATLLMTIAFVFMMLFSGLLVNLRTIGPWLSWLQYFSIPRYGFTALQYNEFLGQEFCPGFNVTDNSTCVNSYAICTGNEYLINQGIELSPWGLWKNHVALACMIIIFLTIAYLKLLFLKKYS
Text: (§1) The Gentest ATPase assay (Corning, Germany) was used to investigate the binding kinetics of the panel of P-gp substrates against membranes constituted to display human MDR1, mouse Mdr1a, mouse Mdr1b and mouse Bcrp. The assays measure the accumulation of inorganic phosphate (absorbance at 800 nm) produced in the breakdown of ATP to ADP. […] The assays were used in accordance with the manufacturer’s protocol to calculate (GraphPad Prism) the Michaelis-Menten parameters Km and VMAX. For the assay test compounds were serially diluted to produce an assay concentration range of 0–300 μM with the kinetics of ATP turnover examined over 30 min at 37°C.

[2] = Immobilised artificial membrane (IAM) chromatography; format: physicochemical; settings: extrapolated to 100% water; mean of four experiments
Method: IAM chromatography provided an experimental measure of substrate membrane affinity and phospholipid interaction. The IAM column (Regis Technologies Inc., Hichrom, Reading, UK; IAM.PC.DD2 10 cm x 4.6 mm ID column) was run under isocratic eluting conditions with the retention of all compounds determined under three mobile phase conditions: 10%, 20% and 30% acetonitrile in water, and from which the theoretical retention time in 100% water was calculated by linear regression. LogK^IAM values were calculated according to Eq. 2:2 LogK^IAM=LogTr−T0/T0
where Tr and T0 are respectively the retention times of the substrate in 100% water and of the unretained compound, i.e. eluting within the solvent front of 75 s in all experiments.

[3] = Multi-lamellar liposome vesicle (MLV) partitioning; format: physicochemical; settings: (C0−CS)/C0, 1 μg/mL, 4 h, 37°C, PBS pH 7.4
Method: MLVs were formed as previously described ([20]). Briefly, solutions of 8 mg phosphatidylcholine and 2 mg phosphatidylglycerol in 10 mL chloroform were completely dried to a lipid film (rotation under vacuum).
These preparations were then incubated at 37°C for 4 h under shaking conditions to allow equilibration of compound between the lipid and aqueous fractions. The MLVs were then pelleted and 100 μL of supernatant removed for analysis by radiometric or LC-MS/MS methods as described above. Partitioning into the MLVs was determined according to Eq. 3:3 MLVpartitioning=C0−CS/C0
where C0 is the initial compound concentration (1 μg/mL) and CS is the compound concentration present in the aqueous supernatant at the end of 4 h incubation.

human MDR1 = human MDR1 (Homo sapiens, UniProt P08183); assay: Gentest ABC transporter membrane ATPase assay; settings: ATPase, 0–300 μM, 30 min, 37°C
Text: as §1

mouse Mdr1a = mouse Mdr1a (Mus musculus, UniProt P21447); assay: Gentest ABC transporter membrane ATPase assay; settings: 0–300 μM, 30 min, 37°C
mouse Mdr1b = mouse Mdr1b (Mus musculus, UniProt P06795); assay: Gentest ABC transporter membrane ATPase assay; settings: 0–300 μM, 30 min, 37°C
Text: as §1

[4] = system: P-gp (Mdr1a/1b) in mouse intestinal segments; assay: Ussing chamber intestinal permeability, ileal segments Mdr1a/1b (+/+) vs (−/−); settings: for Mdr1a/1b (−/−) Permeability coefficient: P-gp knockout intestinal segments; for Mdr1a/1b (−/−) Permeability coefficient / Mdr1a/1b (+/+) Permeability coefficient: mucosal to serosal, 50 μM, 180 min; for Ratio Permeability (−/−): (+/+): intestinal Papp KO:WT; for Mdr1a/1b (+/+) Permeability coefficient: wild-type intestinal segments

Chain of mouse Mdr1b (P06795 whole entry): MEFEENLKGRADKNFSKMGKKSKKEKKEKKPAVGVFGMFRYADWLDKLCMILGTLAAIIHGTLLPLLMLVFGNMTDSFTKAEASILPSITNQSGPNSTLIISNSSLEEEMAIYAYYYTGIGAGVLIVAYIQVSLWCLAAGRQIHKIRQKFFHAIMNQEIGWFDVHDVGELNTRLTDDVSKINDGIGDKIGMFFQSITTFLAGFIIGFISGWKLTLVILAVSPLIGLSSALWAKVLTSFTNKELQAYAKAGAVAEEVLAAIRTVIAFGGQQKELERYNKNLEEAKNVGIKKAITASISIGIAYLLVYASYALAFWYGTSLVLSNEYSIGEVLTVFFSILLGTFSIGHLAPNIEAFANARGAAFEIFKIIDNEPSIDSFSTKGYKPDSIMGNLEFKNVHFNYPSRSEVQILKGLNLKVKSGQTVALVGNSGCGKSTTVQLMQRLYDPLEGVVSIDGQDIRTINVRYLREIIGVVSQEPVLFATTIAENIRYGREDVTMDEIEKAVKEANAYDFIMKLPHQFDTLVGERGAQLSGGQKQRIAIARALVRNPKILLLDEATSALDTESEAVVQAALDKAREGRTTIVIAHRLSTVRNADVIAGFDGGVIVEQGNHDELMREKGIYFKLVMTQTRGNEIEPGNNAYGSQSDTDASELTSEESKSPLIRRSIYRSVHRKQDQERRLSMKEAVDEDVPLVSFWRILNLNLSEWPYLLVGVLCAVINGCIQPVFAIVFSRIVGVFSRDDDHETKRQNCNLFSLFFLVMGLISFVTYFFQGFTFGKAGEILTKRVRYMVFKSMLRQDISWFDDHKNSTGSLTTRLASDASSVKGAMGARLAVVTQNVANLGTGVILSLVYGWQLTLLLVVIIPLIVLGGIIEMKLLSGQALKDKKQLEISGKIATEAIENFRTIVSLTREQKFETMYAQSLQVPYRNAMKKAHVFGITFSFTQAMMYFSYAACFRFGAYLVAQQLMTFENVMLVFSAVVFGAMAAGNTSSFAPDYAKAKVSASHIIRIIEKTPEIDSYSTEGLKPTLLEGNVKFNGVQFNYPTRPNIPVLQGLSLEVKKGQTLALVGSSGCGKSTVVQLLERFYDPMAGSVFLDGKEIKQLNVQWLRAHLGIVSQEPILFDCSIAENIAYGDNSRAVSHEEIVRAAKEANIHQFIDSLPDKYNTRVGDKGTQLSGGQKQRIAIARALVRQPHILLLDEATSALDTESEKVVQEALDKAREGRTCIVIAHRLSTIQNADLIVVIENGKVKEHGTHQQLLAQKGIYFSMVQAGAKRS
Chain of mouse Mdr1a (P21447 whole entry): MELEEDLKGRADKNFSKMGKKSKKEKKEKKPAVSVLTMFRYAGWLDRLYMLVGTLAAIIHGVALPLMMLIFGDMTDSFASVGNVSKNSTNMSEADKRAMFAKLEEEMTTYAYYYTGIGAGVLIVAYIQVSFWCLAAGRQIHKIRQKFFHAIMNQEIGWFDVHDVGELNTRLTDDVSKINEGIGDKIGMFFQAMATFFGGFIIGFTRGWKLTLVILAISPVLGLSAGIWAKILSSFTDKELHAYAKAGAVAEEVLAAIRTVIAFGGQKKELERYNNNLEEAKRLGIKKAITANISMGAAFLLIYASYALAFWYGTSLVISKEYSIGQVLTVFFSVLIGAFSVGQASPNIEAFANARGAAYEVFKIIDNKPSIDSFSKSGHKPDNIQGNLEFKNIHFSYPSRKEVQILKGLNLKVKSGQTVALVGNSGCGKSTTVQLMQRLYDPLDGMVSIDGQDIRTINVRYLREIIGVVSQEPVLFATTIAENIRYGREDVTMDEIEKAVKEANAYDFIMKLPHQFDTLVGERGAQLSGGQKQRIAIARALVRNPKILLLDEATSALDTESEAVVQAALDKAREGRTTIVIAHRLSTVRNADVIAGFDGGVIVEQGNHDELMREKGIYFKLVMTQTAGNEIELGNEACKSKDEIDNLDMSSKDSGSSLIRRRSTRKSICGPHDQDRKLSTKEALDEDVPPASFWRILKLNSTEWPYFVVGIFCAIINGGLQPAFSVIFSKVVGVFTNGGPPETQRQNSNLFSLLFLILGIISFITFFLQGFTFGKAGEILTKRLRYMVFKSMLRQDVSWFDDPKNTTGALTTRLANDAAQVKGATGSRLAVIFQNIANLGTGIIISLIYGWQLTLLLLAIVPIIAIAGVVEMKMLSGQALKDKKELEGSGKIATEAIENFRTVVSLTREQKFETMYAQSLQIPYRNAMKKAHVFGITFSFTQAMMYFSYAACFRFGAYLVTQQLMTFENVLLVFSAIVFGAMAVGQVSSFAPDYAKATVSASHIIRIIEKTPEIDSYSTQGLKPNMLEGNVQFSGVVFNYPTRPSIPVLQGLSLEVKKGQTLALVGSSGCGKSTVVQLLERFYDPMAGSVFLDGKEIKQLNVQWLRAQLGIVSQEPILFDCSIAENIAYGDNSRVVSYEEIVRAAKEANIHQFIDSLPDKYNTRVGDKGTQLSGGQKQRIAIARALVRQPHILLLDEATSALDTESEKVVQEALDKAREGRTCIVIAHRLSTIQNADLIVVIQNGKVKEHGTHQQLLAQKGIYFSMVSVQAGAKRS
Chain of human MDR1 (P08183 whole entry): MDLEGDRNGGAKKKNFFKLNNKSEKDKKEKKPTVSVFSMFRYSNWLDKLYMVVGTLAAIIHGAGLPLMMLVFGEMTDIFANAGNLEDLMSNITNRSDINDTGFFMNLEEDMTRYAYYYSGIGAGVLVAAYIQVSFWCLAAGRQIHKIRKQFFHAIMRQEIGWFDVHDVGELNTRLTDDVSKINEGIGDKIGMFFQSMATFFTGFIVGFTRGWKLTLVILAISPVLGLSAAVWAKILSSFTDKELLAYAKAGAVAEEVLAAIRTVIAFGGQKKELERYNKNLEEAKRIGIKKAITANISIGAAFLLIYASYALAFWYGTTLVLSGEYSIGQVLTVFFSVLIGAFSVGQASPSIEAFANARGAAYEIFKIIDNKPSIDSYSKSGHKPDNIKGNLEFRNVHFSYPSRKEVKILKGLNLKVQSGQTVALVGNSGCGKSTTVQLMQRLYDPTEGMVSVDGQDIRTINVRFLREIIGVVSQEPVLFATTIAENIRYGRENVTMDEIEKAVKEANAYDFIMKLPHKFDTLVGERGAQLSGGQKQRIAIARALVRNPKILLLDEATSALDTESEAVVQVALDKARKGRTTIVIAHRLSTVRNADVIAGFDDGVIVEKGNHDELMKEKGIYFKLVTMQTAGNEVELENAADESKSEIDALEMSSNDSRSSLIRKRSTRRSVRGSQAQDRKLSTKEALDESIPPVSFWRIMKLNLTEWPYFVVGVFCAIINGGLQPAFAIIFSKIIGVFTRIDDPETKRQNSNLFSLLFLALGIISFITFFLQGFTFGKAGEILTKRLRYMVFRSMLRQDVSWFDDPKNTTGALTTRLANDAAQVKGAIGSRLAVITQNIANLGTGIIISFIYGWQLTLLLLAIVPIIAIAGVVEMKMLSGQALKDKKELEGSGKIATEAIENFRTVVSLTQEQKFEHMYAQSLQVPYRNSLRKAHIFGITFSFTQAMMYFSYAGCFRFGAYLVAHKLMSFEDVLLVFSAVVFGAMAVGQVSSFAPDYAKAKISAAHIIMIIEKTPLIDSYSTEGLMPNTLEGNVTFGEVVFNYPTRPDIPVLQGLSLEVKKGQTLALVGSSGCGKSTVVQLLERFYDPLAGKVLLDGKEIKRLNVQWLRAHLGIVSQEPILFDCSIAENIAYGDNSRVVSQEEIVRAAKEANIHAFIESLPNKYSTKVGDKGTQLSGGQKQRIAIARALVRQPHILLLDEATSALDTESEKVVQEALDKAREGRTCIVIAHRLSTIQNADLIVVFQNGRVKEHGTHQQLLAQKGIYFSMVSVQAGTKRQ

CCc1cc2c(cc1CC)CC(NC[C@H](O)c1ccc(O)c3[nH]c(=O)ccc13)C2 [Indacaterol, indacaterol]
Group (impact of Mdr1a/1b knockout on IPML absorption) [1]: GROUP B | Mdr1a/1b (+/+) ‘F’ estimate by model fit [95% CI) [1]: 29.3 [25.5 to 33.1] | Mdr1a/1b (-/-) ‘F’ estimate by model fit [95% CI) [1]: 40.6 [36.7 to 44.5] | Ratio AUCs (-/-) : (+/+) [1]: 1.37 | Mdr1a/1b (+/+) % Deposited Dose absorbed [1]: 27.6% | Mdr1a/1b (-/-) % Deposited Dose absorbed [1]: 37.3% | Vmax (mouse Bcrp): 0 µM/min | LogK^IAM [2]: 1.23 | MLV Partitioning [3]: 0.92 | Vmax (human MDR1): 81.1 µM/min | Vmax (mouse Mdr1a): 119 µM/min | Vmax (mouse Mdr1b): 132 µM/min | Mdr1a/1b (−/−) Permeability coefficient [4]: 29.22 ± 4.40 cm/s (x10^−6) | Ratio Permeability (−/−): (+/+) [4]: 1.92 | Mdr1a/1b (+/+) Permeability coefficient [4]: 15.2 ± 2.79 cm/s (x10^−6)

O=c1[nH]c2ccccc2n1CCCN1CCC(n2c(=O)[nH]c3cc(Cl)ccc32)CC1 [Domperidone, domperidone]
LogK^IAM [2]: 1.33 | MLV Partitioning [3]: 0.92

COc1ccc(C[C@H](N)C(=O)N[C@H]2[C@@H](O)[C@H](n3cnc4c(N(C)C)ncnc43)O[C@@H]2CO)cc1 [Puromycin, puromycin]
Group (impact of Mdr1a/1b knockout on IPML absorption) [1]: GROUP A | Mdr1a/1b (+/+) ‘F’ estimate by model fit [95% CI) [1]: 48.2 [43.7 to 52.8] | Mdr1a/1b (-/-) ‘F’ estimate by model fit [95% CI) [1]: 56.1 [48.1 to 64.1] | Ratio AUCs (-/-) : (+/+) [1]: 1.01 | Mdr1a/1b (+/+) % Deposited Dose absorbed [1]: 46.9% | Mdr1a/1b (-/-) % Deposited Dose absorbed [1]: 49.3% | Vmax (mouse Bcrp): 0 µM/min | LogK^IAM [2]: 1.31 | MLV Partitioning [3]: 0.62 | Vmax (human MDR1): 19.6 µM/min | Vmax (mouse Mdr1a): 16.5 µM/min | Vmax (mouse Mdr1b): 31.5 µM/min | Mdr1a/1b (−/−) Permeability coefficient [4]: 14.95 ± 2.33 cm/s (x10^−6) | Ratio Permeability (−/−): (+/+) [4]: 2.56 | Mdr1a/1b (+/+) Permeability coefficient [4]: 5.83 ± 2.38 cm/s (x10^−6)

CC[C@H]1OC(=O)[C@H](C)[C@@H](O[C@H]2C[C@@](C)(OC)[C@@H](O)[C@H](C)O2)[C@H](C)[C@@H](O[C@@H]2O[C@H](C)C[C@H](N(C)C)[C@H]2O)[C@](C)(O)C[C@@H](C)C(=O)[C@H](C)[C@@H](O)[C@]1(C)O [Erythromycin, erythromycin]
Group (impact of Mdr1a/1b knockout on IPML absorption) [1]: GROUP A | Mdr1a/1b (+/+) % Deposited Dose absorbed [1]: 55.5% | Mdr1a/1b (-/-) % Deposited Dose absorbed [1]: 54.1% | Vmax (mouse Bcrp): 0 µM/min | LogK^IAM [2]: 0.88 | MLV Partitioning [3]: 0.46 | Vmax (mouse Mdr1a): 28.4 µM/min | Vmax (mouse Mdr1b): 48.5 µM/min | Mdr1a/1b (−/−) Permeability coefficient [4]: 13.70 ± 4.54 cm/s (x10^−6) | Mdr1a/1b (+/+) Permeability coefficient [4]: 3.02 ± 1.15 cm/s (x10^−6)

CCN(CC)CCCC(C)Nc1ccnc2cc(Cl)ccc12 (stereo not drawn) [Chloroquine, chloroquine]
LogK^IAM [2]: 1.43 | Mdr1a/1b (−/−) Permeability coefficient [4]: 23.39 ± 4.18 cm/s (x10^−6)

CN1CCC[C@@H]1Cc1c[nH]c2ccc(CCS(=O)(=O)c3ccccc3)cc12 [Eletriptan, eletriptan]
Group (impact of Mdr1a/1b knockout on IPML absorption) [1]: GROUP B | Mdr1a/1b (+/+) ‘F’ estimate by model fit [95% CI) [1]: 18.5 [16.5 to 20.5] | Mdr1a/1b (-/-) ‘F’ estimate by model fit [95% CI) [1]: 25.8 [23.6 to 27.9] | Ratio AUCs (-/-) : (+/+) [1]: 1.39 | Mdr1a/1b (+/+) % Deposited Dose absorbed [1]: 17.9% | Mdr1a/1b (-/-) % Deposited Dose absorbed [1]: 26.6% | Vmax (mouse Bcrp): 0 µM/min | LogK^IAM [2]: 1.46 | MLV Partitioning [3]: 0.94 | Mdr1a/1b (−/−) Permeability coefficient [4]: 11.04 ± 2.17 cm/s (x10^−6) | Ratio Permeability (−/−): (+/+) [4]: 2.26 | Mdr1a/1b (+/+) Permeability coefficient [4]: 4.90 ± 2.51 cm/s (x10^−6)

O=C1c2c(O)ccc(O)c2C(=O)c2c(NCCNCCO)ccc(NCCNCCO)c21 [Mitoxantrone, mitoxantrone]
Group (impact of Mdr1a/1b knockout on IPML absorption) [1]: GROUP A | Mdr1a/1b (+/+) ‘F’ estimate by model fit [95% CI) [1]: 26.4 [21.9 to 30.9] | Mdr1a/1b (-/-) ‘F’ estimate by model fit [95% CI) [1]: 24.9 [20.8 to 28.9] | Mdr1a/1b (+/+) % Deposited Dose absorbed [1]: 25.1% | Mdr1a/1b (-/-) % Deposited Dose absorbed [1]: 23.3% | Vmax (mouse Bcrp): 4.79 µM/min | interaction with Bcrp (ATP turnover) (mouse Bcrp; mouse Bcrp membrane model): showed evidence of interactions with Bcrp | LogK^IAM [2]: 1.13 | MLV Partitioning [3]: 0.59 | Vmax (mouse Mdr1a): 27.5 µM/min | Vmax (mouse Mdr1b): 35.0 µM/min | Mdr1a/1b (−/−) Permeability coefficient [4]: 13.70 ± 2.69 cm/s (x10^−6) | Mdr1a/1b (+/+) Permeability coefficient [4]: 4.69 ± 1.06 cm/s (x10^−6)
